Data from patent publication US6762207B1, “(E)-styryl sulfone anticancer agents” (priority 1999, dated 2004).

Assays:
Assay type in all cases: cell-based
Set-up in all cases: dose or concentration left out as unconfirmed
Conditions in all cases: 96 hours
[1] = test system: breast tumor cell line MCF-7; assay: Trypan blue exclusion viability assay, MCF-7
Protocol: (§1) MCF-7 is estrogen-responsive, while BT-20 is an estrogen-unresponsive cell line. NIH/3T3 and HFL are normal murine and human fibroblasts, respectively. MCF-7, BT-20, DLD-1 and H157 were grown in Dulbecco's modified Eagle's medium (DMEM) containing 10% fetal bovine serum supplemented with penicillin and streptomycin. DU145 was cultured in RPMI with 10% fetal bovine serum containing penicillin and streptomycin. […] All cell cultures were maintained at 37° C. in a humidified atmosphere of 5% CO2. Cells were treated with test compound at 2.5 mM concentration and cell viability was determined after 96 hours by the Trypan blue exclusion method.

[2] = test system: prostate tumor cell line DU-145; assay: Trypan blue exclusion viability assay, DU145
Protocol: as §1

[3] = test system: non-small cell lung carcinoma cell line H157; assay: Trypan blue exclusion viability assay, H157
Protocol: as §1

[4] = test system: colorectal carcinoma cell line DLD-1; assay: Trypan blue exclusion viability assay, DLD-1
Protocol: as §1

[5] = test system: breast tumor cell line BT-20; assay: Trypan blue exclusion viability assay, BT20
Protocol: as §1

Molecule	Cell death, MCF-7 [1]	Cell death, DU145 [2]	Cell death, H157 [3]	Cell death, DLD-1 [4]	Cell death, BT20 [5]
N#Cc1ccc(CS(=O)(=O)/C=C/c2ccc(F)cc2)cc1 [Example 10, (E)-4-Fluorostyryl-4-cyanobenzylsulfone]	+++ (40-50% = +++)	++ (10-15% = ++)	+++ (40-50% = +++)	–	–
N#Cc1ccc(CS(=O)(=O)/C=C/c2ccc(Cl)cc2)cc1 [Example 11, (E)-4-Chlorostyryl-4-cyanobenzylsulfone]	+ (5-10%: = +)	+ (5-10%: = +)	+ (5-10%: = +)	–	–
O=S(=O)(/C=C/c1ccc(Cl)cc1Cl)Cc1ccc(Cl)cc1 [Example 16, (E)-2,4-Dichlorostyryl-4-chlorobenzylsulfone]	++++ (50-60% = ++++)	+++ (40-50% = +++)	–	++++ (50-60% = ++++)	–
O=S(=O)(/C=C/c1ccc(Cl)c(Cl)c1)Cc1ccc(Cl)cc1 [Example 17, (E)-3,4-Dichlorostyryl-4-chlorobenzylsulfone]	+ (5-10%: = +)	+ (5-10%: = +)	–	+ (5-10%: = +)	–
O=S(=O)(/C=C/c1cccc(Cl)c1Cl)Cc1ccc(Cl)cc1 [Example 18, (E)-2,3-Dichlorostyryl-4-chlorobenzylsulfone]	+ (5-10%: = +)	+ (5-10%: = +)	–	+ (5-10%: = +)	–
O=[N+]([O-])c1ccccc1/C=C/S(=O)(=O)Cc1ccc(Br)cc1 [Example 46, (E)-2-nitrostyryl-4-bromobenzylsulfone]	–	+ (5-10%: = +)	+ (5-10%: = +)	+ (5-10%: = +)	+ (5-10%: = +)
O=[N+]([O-])c1cccc(/C=C/S(=O)(=O)Cc2ccc(Br)cc2)c1 [Example 47, (E)-3-nitrostyryl-4-bromobenzylsulfone]	–	+ (5-10%: = +)	+ (5-10%: = +)	+ (5-10%: = +)	+ (5-10%: = +)
O=[N+]([O-])c1ccc(/C=C/S(=O)(=O)Cc2ccc(Br)cc2)cc1 [Example 48, (E)-4-nitrostyryl-4-bromobenzylsulfone]	–	++++ (50-60% = ++++)	++++ (50-60% = ++++)	++++ (50-60% = ++++)	++++ (50-60% = ++++)
O=S(=O)(/C=C/c1ccccc1C(F)(F)F)Cc1ccc(Br)cc1 [Example 49, (E)-2-trifluoromethylstyryl-4-bromobenzylsulfone]	–	+ (5-10%: = +)	+ (5-10%: = +)	+ (5-10%: = +)	+ (5-10%: = +)
N#Cc1ccc(CS(=O)(=O)/C=C/c2ccccc2[N+](=O)[O-])cc1 [Example 52, (E)-2-nitrostyryl-4-cyanobenzylsulfone]	–	+ (5-10%: = +)	+ (5-10%: = +)	+ (5-10%: = +)	+ (5-10%: = +)
N#Cc1ccc(CS(=O)(=O)/C=C/c2cccc([N+](=O)[O-])c2)cc1 [Example 53, (E)-3-nitrostyryl-4-cyanobenzylsulfone]	–	+ (5-10%: = +)	+ (5-10%: = +)	+ (5-10%: = +)	+ (5-10%: = +)
N#Cc1ccc(CS(=O)(=O)/C=C/c2ccc([N+](=O)[O-])cc2)cc1 [Example 54, (E)-4-nitrostyryl-4-cyanobenzylsulfone]	–	++++ (50-60% = ++++)	++++ (50-60% = ++++)	++++ (50-60% = ++++)	++++ (50-60% = ++++)
Cc1ccc(CS(=O)(=O)/C=C/c2ccc(F)cc2)cc1 [Example 55, (E)-4-fluorostyryl-4-methylbenzylsulfone]	–	+ (5-10%: = +)	+ (5-10%: = +)	+ (5-10%: = +)	+ (5-10%: = +)
Cc1ccc(CS(=O)(=O)/C=C/c2ccc(Br)cc2)cc1 [Example 56, (E)-4-bromostyryl-4-methylbenzylsulfone]	–	+ (5-10%: = +)	+ (5-10%: = +)	+ (5-10%: = +)	+ (5-10%: = +)
Cc1ccc(CS(=O)(=O)/C=C/c2ccccc2[N+](=O)[O-])cc1 [Example 57, (E)-2-nitrostyryl-4-methylbenzylsulfone]	–	+ (5-10%: = +)	+ (5-10%: = +)	+ (5-10%: = +)	+ (5-10%: = +)
Cc1ccc(CS(=O)(=O)/C=C/c2cccc([N+](=O)[O-])c2)cc1 [Example 58, (E)-3-nitrostyryl-4-methylbenzylsulfone]	–	+ (5-10%: = +)	+ (5-10%: = +)	+ (5-10%: = +)	+ (5-10%: = +)
Cc1ccc(CS(=O)(=O)/C=C/c2ccc([N+](=O)[O-])cc2)cc1 [Example 59, (E)-4-nitrostyryl-4-methylbenzylsulfone]	–	+ (5-10%: = +)	+ (5-10%: = +)	+ (5-10%: = +)	+ (5-10%: = +)
COc1ccc(CS(=O)(=O)/C=C/c2ccc(F)cc2)cc1 [Example 60, (E)-4-fluorostyryl-4-methoxybenzylsulfone]	–	+++++ (Above 80% = +++++)	+++++ (Above 80% = +++++)	+++++ (Above 80% = +++++)	+++++ (Above 80% = +++++)
COc1ccc(CS(=O)(=O)/C=C/c2ccc(Cl)cc2)cc1 [Example 61, (E)-4-chlorostyryl-4-methoxybenzylsulfone]	–	++++ (50-60% = ++++)	++++ (50-60% = ++++)	++++ (50-60% = ++++)	++++ (50-60% = ++++)
COc1ccc(CS(=O)(=O)/C=C/c2ccc(Br)cc2)cc1 [Example 62, (E)-4-bromostyryl-4-methoxybenzylsulfone]	–	++++ (50-60% = ++++)	++++ (50-60% = ++++)	++++ (50-60% = ++++)	++++ (50-60% = ++++)
COc1ccc(CS(=O)(=O)/C=C/c2ccccc2[N+](=O)[O-])cc1 [Example 63, (E)-2-nitrostyryl-4-methoxybenzylsulfone]	–	+ (5-10%: = +)	+ (5-10%: = +)	+ (5-10%: = +)	+ (5-10%: = +)
COc1ccc(CS(=O)(=O)/C=C/c2cccc([N+](=O)[O-])c2)cc1 [Example 64, (E)-3-nitrostyryl-4-methoxybenzylsulfone]	–	+ (5-10%: = +)	+ (5-10%: = +)	+ (5-10%: = +)	+ (5-10%: = +)
COc1ccc(CS(=O)(=O)/C=C/c2ccc([N+](=O)[O-])cc2)cc1 [Example 65, (E)-4-nitrostyryl-4-methoxybenzylsulfone]	–	++++ (50-60% = ++++)	++++ (50-60% = ++++)	++++ (50-60% = ++++)	++++ (50-60% = ++++)
O=[N+]([O-])c1ccc(CS(=O)(=O)/C=C/c2ccc(Cl)cc2)cc1 [Example 66, (E)-4-chlorostyryl-4-nitrobenzylsulfone]	–	+ (5-10%: = +)	+ (5-10%: = +)	+ (5-10%: = +)	+ (5-10%: = +)
O=[N+]([O-])c1ccc(CS(=O)(=O)/C=C/c2ccc(F)cc2)cc1 [Example 67, (E)-4-fluorostyryl-4-nitrobenzylsulfone]	–	+ (5-10%: = +)	+ (5-10%: = +)	+ (5-10%: = +)	+ (5-10%: = +)
(E)-4-trifluoromethylstyryl-4-bromoyanobenzylsulfone [Example 51]	–	+ (5-10%: = +)	+ (5-10%: = +)	+ (5-10%: = +)	+ (5-10%: = +)
